Laboratory results reported in ChEMBL document CHEMBL1148201, “Penasulfate A, a new alpha-glucosidase inhibitor from a marine sponge Penares sp” (J Nat Prod, 2004).

Assays:
[1] = Inhibition of yeast alpha-glucosidase G7256; design: species or system Saccharomyces cerevisiae
[2] = Inhibition of Saccharomyces cerevisiae recombinant alpha-glucosidase G0660

IC50 [1]	IC50 [2]	Compound
1.5 µg/mL		CCC[C@H]1CCCCCCCCC[C@H](OS(=O)(=O)[O-])[C@H](OS(=O)(=O)[O-])[C@@H](OS(=O)(=O)[O-])CCCCCCCCCCCCCC(=O)N2CCC[C@H]2C(=O)O1.[Na+].[Na+].[Na+] [PENAROLIDE SULFATE A2]
1.2 µg/mL		CCCC[C@H]1CCCCCCCCC[C@H](OS(=O)(=O)[O-])[C@H](OS(=O)(=O)[O-])[C@@H](OS(=O)(=O)[O-])CCCCCCCCCCCCC(=O)N2CCC[C@H]2C(=O)O1.[Na+].[Na+].[Na+] [PENAROLIDE SULFATE A1]
	3.5 µg/mL	CCCCCC[C@H](C)CCCCCC[C@H](OS(=O)(=O)[O-])[C@@H](CCCCCCCCCCCCC(=O)N1CCCC[C@@H]1C(=O)OC)OS(=O)(=O)[O-].[Na+].[Na+] [PENASULFATE A]
